Source: PMC9487510, “A Novel Oral GyrB/ParE Dual Binding Inhibitor Effective against Multidrug-Resistant Neisseria gonorrhoeae and Other High-Threat Pathogens” (Antimicrobial Agents and Chemotherapy, 2022)
Read-outs that look alike come from different tables or passages of the source.

System: MRSA
Experiment: MIC, in vitro susceptibility testing (CLSI)
Type: cell-based, Staphylococcus aureus
Conditions: for MIC: Staphylococcus aureus, MRSA

CNc1cc(F)cc2c1[nH]c1nc(Oc3cnc(C)nc3)nc(N3CCC4(CC3)CO[C@@H](CO)C4)c12 [JSF-2414]
0.002 to 0.125 µg/mL: MIC range (101 strains (Van: 8))
0.125 µg/mL: MIC (strain 2 11 57, read-out: MIC) | MIC (strain 2 11 90, read-out: MIC) | MIC (strain 2 12 13, read-out: MIC) | MIC (strain 2 13 23, read-out: MIC) | MIC (strain 2 13 41, read-out: MIC) | MIC (strain 2 13 47, read-out: MIC)
0.002 µg/mL: MIC (strain 2 11 58, read-out: MIC) | MIC (strain 2 11 80, read-out: MIC) | MIC (strain 2 11 86, read-out: MIC) | MIC (strain 2 13 29, read-out: MIC) | MIC (strain 2 13 48, read-out: MIC) | MIC (strain 2 13 52, read-out: MIC)
0.004 µg/mL: MIC (strain 2 11 56, read-out: MIC) | MIC (strain 2 11 60, read-out: MIC) | MIC (strain 2 11 61, read-out: MIC) | MIC (strain 2 11 67, read-out: MIC) | MIC (strain 2 11 68, read-out: MIC) | MIC (strain 2 12 88, read-out: MIC) | MIC (strain 2 13 26, read-out: MIC) | MIC (strain 2 13 32, read-out: MIC)
0.062 µg/mL: MIC (ciprofloxacin-resistant strains (MIC >4 μg/mL), n = 30, read-out: modal MIC) | MIC (strain 2 11 41, read-out: MIC) | MIC (strain 2 11 43, read-out: MIC) | MIC (strain 2 11 65, read-out: MIC) | MIC (strain 2 11 66, read-out: MIC) | MIC (strain 2 11 71, read-out: MIC) | MIC (strain 2 11 74, read-out: MIC) | MIC (strain 2 11 79, read-out: MIC) | MIC (strain 2 11 83, read-out: MIC) | MIC (strain 2 11 87, read-out: MIC) | MIC (strain 2 13 43, read-out: MIC) | MIC (strain 2 13 53, read-out: MIC) | MIC (strain 2 13 54, read-out: MIC) | MIC (strain 2 13 55, read-out: MIC) | MIC (strain 2 13 56, read-out: MIC) | MIC (strain 2 78 41, read-out: MIC)
0.016 µg/mL: MIC (strain 2 11 42, read-out: MIC) | MIC (strain 2 11 91, read-out: MIC) | MIC (strain 2 12 78, read-out: MIC) | MIC (strain 2 13 19, read-out: MIC) | MIC (strain 2 13 27, read-out: MIC) | MIC (strain 2 13 33, read-out: MIC) | MIC (strain 2 13 57, read-out: MIC) | MIC (strain 2 35 90, read-out: MIC) | MIC (strain 2 66 36, read-out: MIC) | MIC (strain 2 66 41, read-out: MIC)
0.008 µg/mL: MIC (strain 2 11 75, read-out: MIC) | MIC (strain 2 11 99, read-out: MIC)
0.031 µg/mL: MIC (101 clinical MRSA strains, read-out: modal MIC) | MIC (discussion, read-out: MIC) | MIC (strain 2 11 84, read-out: MIC) | MIC (strain 2 12 76, read-out: MIC) | MIC (strain 2 13 58, read-out: MIC) | MIC (strain 2 36 04, read-out: MIC) | MIC (strain 2 36 17, read-out: MIC) | MIC (strain 2 36 31, read-out: MIC)
